For 27 molecules, IC50, viability and inhibition results are on record in ChEMBL document CHEMBL4387783, “Bioactive triterpene glycosides from the fruit of Stauntonia hexaphylla and insights into the molecular mechanism of its inflammatory effects” (Bioorg Med Chem Lett, 2019).

Data set [1] has as its system RAW264.7. Kind of data set: Antiinflammatory activity in mouse RAW264.7 cells assessed as inhibition of LPS-induced nitirc oxide production preincubated for 1 hr followed by LPS-stimulation and measured after 18 hrs by Griess assay. The format is functional, cell-based. For orientation: Griess reagent forms a coloured azo dye with nitrite.
Data set [2] is described as follows: Cytotoxicity against LPS-stimulated mouse RAW264.7 cells assessed as cell viability at antiinflammatory IC50 preincubated for 1 hr followed by LPS-stimulation and measured after 18 hrs by MTT assay relative to control. The data set is classed as cell-based. Particulars: LPS-stimulated RAW264.7 cells, read-out: Activity. For orientation: Formazan colour is commonly taken as a measure of viable cells.

For data set [3], the system named is RAW264.7. Briefly: Antiinflammatory activity in mouse RAW264.7 cells assessed as inhibition of LPS-induced iNOS expression at 1 to 5 uM preincubated for 1 hr followed by LPS-stimulation and measured after 16 hrs by Western blot analysis. The format is functional, cell-based.
The test system of data set [4] is RAW264.7. Briefly: Antiinflammatory activity in mouse RAW264.7 cells assessed as inhibition of LPS-induced COX2 expression at 1 to 5 uM preincubated for 1 hr followed by LPS-stimulation and measured after 16 hrs by Western blot analysis. The format is functional, cell-based. In general terms: In western blotting, separated proteins are transferred to a membrane and probed.

Calls of active or inactive are those of the source. The rule behind the calls is not given here.

What is called IC50 is the point on the concentration scale where inhibition reaches its midpoint. As to `CC1(C)[C@H](O)CC[C@]2(C)[C@H]3CC=C4[C@@H]5C[C@](C)(CO)CC[C@]5(C(=O)O)CC[C@@]4(C)[C@]3(C)CC[C@@H]12`, in data set [1], the concentration for half-maximal inhibition (IC50) was greater than 50 µM.

Consider `CC1=CC(=O)CC(C)(C)[C@@]1(O)/C=C/[C@H](C)O`, for which the half-inhibitory concentration (IC50) in data set [1] is greater than 50 µM.

As to `CC1(C)CC[C@]2(C(=O)O)CC[C@]3(C)C(=CC[C@@H]4[C@@]5(C)CC[C@H](O[C@@H]6OC[C@H](O)[C@H](O)[C@H]6O)C(C)(C)[C@@H]5CC[C@]43C)[C@@H]2C1`, the IC50 in data set [1] was in the range of 4 to 4.04 µM.

Turning to `C[C@@H]1O[C@@H](O[C@H]2[C@H](O)[C@@H](O)[C@H](OC[C@H]3O[C@@H](OC(=O)[C@]45CCC(C)(C)C[C@H]4C4=CC[C@@H]6[C@@]7(C)CC[C@H](O[C@@H]8OC[C@H](O)[C@H](O)[C@H]8O)[C@@](C)(CO)[C@@H]7CC[C@@]6(C)[C@]4(C)CC5)[C@H](O)[C@@H](O)[C@@H]3O)O[C@@H]2CO)[C@H](O)[C@H](O)[C@H]1O` [CAULOSIDE D], the viability at 18 h in data set [2] is less than 60%. Further, the concentration for half-maximal inhibition (IC50) in data set [1] lay within 3.68 to 3.7 µM.

`C[C@@H]1O[C@@H](O[C@H]2[C@H](O[C@H]3CC[C@@]4(C)[C@@H](CC[C@]5(C)[C@@H]4CC=C4[C@@H]6CC(C)(C)CC[C@]6(C(=O)O[C@@H]6O[C@H](CO[C@@H]7O[C@H](CO)[C@@H](O[C@@H]8O[C@@H](C)[C@H](O)[C@@H](O)[C@H]8O)[C@H](O)[C@H]7O)[C@@H](O)[C@H](O)[C@H]6O)CC[C@]45C)[C@]3(C)CO)OC[C@H](O)[C@@H]2O)[C@H](O)[C@H](O)[C@H]1O` [KALOPANAXSAPONIN B]: the IC50 in data set [1] was greater than 50 µM.

For `CC1(C)CC[C@]2(C(=O)O)CC[C@]3(C)C(=CC[C@@H]4[C@@]5(C)CC[C@H](O[C@@H]6OC[C@H](O)[C@H](O)[C@H]6O)[C@@](C)(CO)[C@@H]5CC[C@]43C)[C@@H]2C1`, the IC50 in data set [1] fell in the range of 2.25 to 2.3 µM.

Consider `C[C@@H]1O[C@@H](O[C@H]2[C@H](O[C@H]3CC[C@]4(C)[C@H]5CC=C6[C@@H]7CC(C)(C)CC[C@]7(C(=O)O)CC[C@@]6(C)[C@]5(C)CC[C@H]4C3(C)C)OC[C@H](O[C@@H]3O[C@H](CO)[C@@H](O)[C@H](O)[C@H]3O)[C@@H]2O)[C@H](O)[C@H](O)[C@H]1O[C@@H]1O[C@H](CO)[C@@H](O)[C@H](O)[C@H]1O`, for which the concentration for half-maximal inhibition (IC50) in data set [1] was greater than 50 µM.

Take `C[C@@H]1O[C@@H](O[C@H]2[C@H](O[C@H]3CC[C@]4(C)[C@H]5CC=C6[C@@H]7CC(C)(C)CC[C@]7(C(=O)O[C@@H]7O[C@H](CO)[C@@H](O)[C@H](O)[C@H]7O)CC[C@@]6(C)[C@]5(C)CC[C@H]4C3(C)C)OC[C@H](O)[C@@H]2O)[C@H](O)[C@H](O)[C@H]1O`: in data set [1], the IC50 was greater than 50 µM.

On to `C[C@@H]1O[C@@H](O[C@H]2[C@H](O[C@H]3CC[C@]4(C)[C@H]5CC=C6[C@@H]7CC(C)(C)CC[C@]7(C(=O)O)CC[C@@]6(C)[C@]5(C)CC[C@H]4C3(C)C)OC[C@H](O)[C@@H]2O)[C@H](O)[C@H](O)[C@H]1O`, for which the inhibition entry in data set [3] and in data set [4] was “Active” each time. Further, the IC50 in data set [1] is 1.3 to 1.33 µM.

In the case of `CC1(C)CC[C@]2(C(=O)O)CC[C@]3(C)C(=CC[C@@H]4[C@@]5(C)CC[C@H](O[C@@H]6O[C@H](CO)[C@@H](O)[C@H](O)[C@H]6O[C@@H]6OC[C@H](O)[C@H](O)[C@H]6O)C(C)(C)[C@@H]5CC[C@]43C)[C@@H]2C1`, the IC50 in data set [1] lay within 3.1 to 3.13 µM.

Consider `CC1(C)CC[C@]2(C(=O)O[C@@H]3O[C@H](CO[C@@H]4O[C@H](CO)[C@@H](O)[C@H](O)[C@H]4O)[C@@H](O)[C@H](O)[C@H]3O)CC[C@]3(C)C(=CC[C@@H]4[C@@]5(C)CC[C@H](O[C@@H]6OC[C@H](O)[C@H](O)[C@H]6O[C@@H]6O[C@H](CO)[C@@H](O)[C@H](O)[C@H]6O)C(C)(C)[C@@H]5CC[C@]43C)[C@@H]2C1`, for which the IC50 in data set [1] was greater than 50 µM.

As for `C[C@@H]1O[C@@H](O[C@H]2[C@H](O[C@H]3CC[C@@]4(C)[C@@H](CC[C@]5(C)[C@@H]4CC=C4[C@@H]6CC(C)(C)CC[C@]6(C(=O)O)CC[C@]45C)[C@]3(C)CO)OC[C@H](O)[C@@H]2O)[C@H](O)[C@H](O)[C@H]1O` [ALPHA-HEDERIN], the inhibition entry in data set [3] and in data set [4] was “Active” throughout. Besides, in data set [1], the IC50 was 1.1 µM.

Turning to `C[C@@H]1O[C@@H](O[C@H]2[C@H](O[C@H]3CC[C@@]4(C)[C@@H](CC[C@]5(C)[C@@H]4CC=C4[C@@H]6CC(C)(C)CC[C@]6(C(=O)O)CC[C@]45C)[C@]3(C)CO)O[C@H](CO)[C@@H](O)[C@@H]2O)[C@H](O)[C@H](O)[C@H]1O`, the half-inhibitory concentration (IC50) in data set [1] was in the range of 4.2 to 4.21 µM.

Regarding `CC1(C)CC[C@]2(C(=O)O[C@@H]3O[C@H](CO[C@@H]4O[C@H](CO)[C@@H](O)[C@H](O)[C@H]4O)[C@@H](O)[C@H](O)[C@H]3O)CC[C@]3(C)C(=CC[C@@H]4[C@@]5(C)CC[C@H](O[C@@H]6O[C@H](CO)[C@@H](O)[C@H](O)[C@H]6O)C(C)(C)[C@@H]5CC[C@]43C)[C@@H]2C1`, the IC50 in data set [1] is greater than 50 µM.

Consider `CC1(C)CC[C@]2(C(=O)O[C@@H]3O[C@H](CO[C@@H]4O[C@H](CO)[C@@H](O)[C@H](O)[C@H]4O)[C@@H](O)[C@H](O)[C@H]3O)CC[C@]3(C)C(=CC[C@@H]4[C@@]5(C)CC[C@H](O[C@@H]6OC[C@H](O)[C@H](O)[C@H]6O)[C@@](C)(CO)[C@@H]5CC[C@]43C)[C@@H]2C1`, for which the 50% inhibitory concentration (IC50) in data set [1] is greater than 50 µM.

With `COc1cc(CCC(=O)O)ccc1O` [DIHYDROFERULIC ACID], the IC50 in data set [1] is greater than 50 µM.

Regarding `CC1(C)CC[C@]2(C(=O)O)CC[C@]3(C)C(=CC[C@@H]4[C@@]5(C)CC[C@@H](O)[C@@](C)(CO)[C@@H]5CC[C@]43C)[C@@H]2C1`, the IC50 in data set [1] is greater than 50 µM.

In the case of `C[C@@H]1C[C@H]2[C@@H]3CCC4=CC(=O)C=C[C@]4(C)[C@@]3(F)[C@@H](O)C[C@]2(C)[C@@]1(O)C(=O)CO` [DEXAMETHASONE], the IC50 in data set [1] stood at 0.01 µM.

Take `C[C@@H]1O[C@@H](O[C@H]2[C@H](O[C@H]3CC[C@]4(C)[C@H]5CC=C6[C@@H]7CC(C)(C)CC[C@]7(C(=O)O[C@@H]7O[C@H](CO[C@@H]8O[C@H](CO)[C@@H](O[C@@H]9O[C@@H](C)[C@H](O)[C@@H](O)[C@H]9O)[C@H](O)[C@H]8O)[C@@H](O)[C@H](O)[C@H]7O)CC[C@@]6(C)[C@]5(C)CC[C@H]4C3(C)C)OC[C@H](O)[C@@H]2O)[C@H](O)[C@H](O)[C@H]1O` [HEDERASAPONIN B]: the IC50 in data set [1] was greater than 50 µM.

On to `COC(=O)C(CC(=O)O)OC(=O)/C=C/c1ccc(O)c(O)c1` (stereo not drawn), for which the IC50 in data set [1] was greater than 50 µM.

Turning to `CC1(C)CC[C@]2(C(=O)O)CC[C@]3(C)C(=CC[C@@H]4[C@@]5(C)CC[C@H](O[C@@H]6O[C@H](CO)[C@@H](O)[C@H](O)[C@H]6O)[C@@](C)(CO)[C@@H]5CC[C@]43C)[C@@H]2C1` [Hederagenin-3-O-beta-D-glucopyranoside], the concentration for half-maximal inhibition (IC50) in data set [1] was 13.4 µM.

Regarding `C[C@@H]1O[C@@H](O[C@H]2[C@H](O)[C@@H](O)[C@H](OC[C@H]3O[C@@H](OC(=O)[C@]45CCC(C)(C)C[C@H]4C4=CC[C@@H]6[C@@]7(C)CC[C@H](O)[C@@](C)(CO)[C@@H]7CC[C@@]6(C)[C@]4(C)CC5)[C@H](O)[C@@H](O)[C@@H]3O)O[C@@H]2CO)[C@H](O)[C@H](O)[C@H]1O` [KIZUTA CIRENSENOSIDE O SAPONIN K3], the IC50 in data set [1] was greater than 50 µM.

Consider `C[C@@H]1O[C@@H](O[C@H]2[C@H](O[C@H]3CC[C@]4(C)[C@H]5CC=C6[C@@H]7CC(C)(C)CC[C@]7(C(=O)O)CC[C@@]6(C)[C@]5(C)CC[C@H]4C3(C)C)O[C@H](CO)[C@@H](O)[C@@H]2O)[C@H](O)[C@H](O)[C@H]1O`, for which, in data set [2], the viability at 18 h is less than 60%. Also, in data set [1], the half-maximal inhibitory concentration (IC50) was determined as 1.5 µM.

With `C[C@@H]1O[C@@H](O[C@H]2[C@H](O)[C@@H](O)[C@H](OC[C@H]3O[C@@H](OC(=O)[C@]45CCC(C)(C)C[C@H]4C4=CC[C@@H]6[C@@]7(C)CC[C@H](O[C@@H]8OC[C@H](O)[C@H](O[C@@H]9OC[C@H](O)[C@H](O)[C@H]9O)[C@H]8O)C(C)(C)[C@@H]7CC[C@@]6(C)[C@]4(C)CC5)[C@H](O)[C@@H](O)[C@@H]3O)O[C@@H]2CO)[C@H](O)[C@H](O)[C@H]1O`, the IC50 in data set [1] is greater than 50 µM.

As for `CC1(C)CC[C@]2(C(=O)O)CC[C@]3(C)C(=CC[C@@H]4[C@@]5(C)C[C@@H](O)[C@H](O)[C@@](C)(CO)[C@@H]5CC[C@]43C)[C@@H]2C1` [ARJUNOLIC ACID], the IC50 in data set [1] was 15.2 µM.

For the molecule `C[C@@H]1O[C@@H](O[C@H]2[C@H](O)[C@@H](O)[C@H](OC[C@H]3O[C@@H](OC(=O)[C@]45CCC(C)(C)C[C@H]4C4=CC[C@@H]6[C@@]7(C)CC[C@H](O[C@@H]8OC[C@H](O)[C@H](O)[C@H]8O[C@@H]8O[C@H](CO)[C@@H](O)[C@H](O)[C@H]8O)C(C)(C)[C@@H]7CC[C@@]6(C)[C@]4(C)CC5)[C@H](O)[C@@H](O)[C@@H]3O)O[C@@H]2CO)[C@H](O)[C@H](O)[C@H]1O`, the concentration for half-maximal inhibition (IC50) in data set [1] was greater than 50 µM.

As for `COc1cc(O)cc(OC)c1O[C@@H]1O[C@H](CO)[C@@H](O)[C@H](O)[C@H]1O` [LEONURISIDE], the half-inhibitory concentration (IC50) in data set [1] was greater than 50 µM.
